Data: patent publication US6583175B2, “Alkylxanthates and use of alkylxanthates in the integrated pest management” (Council of Scientific & Industrial Research, priority 2001, dated 2003)
Values after ≈ are worked out from the molar mass of the structure shown. Read-outs that look alike come from different tables or passages of the source.

Tests used:
Format in all cases: in vivo
Spodoptera litura [1] = conditions: topical
Helicoverpa armigera = conditions: topical
Aedes aegypti = conditions: IV instar larvae, 24 hours
Spodoptera litura [2] = test: Antifeedant activity against late third instar of Spodoptera litura (leaf disk, oral feeding)

In the case of `CCCCOC(=S)SCSC(=S)OCCCC` [Methylene bis (n-butylxanthate), Methylene Bis(n-butylxanthate)], the “Adult emergence: Abnormal adults” value (Spodoptera litura [1]; 5 μg/Insect) is reported as 26, the “Adult emergence: Intermediates” value (Spodoptera litura [1]; 5 μg/Insect) is reported as 28 and the “Adult emergence: Non-emergence” value (Spodoptera litura [1]; 5 μg/Insect) is reported as 0. For the same compound, the “Adult emergence: Normal adults” value (Spodoptera litura [1]; 5 μg/Insect) was 41, the “Larval mortality (%)” value (Spodoptera litura [1]; 5 μg/Insect) was 0% and the “Pupal Formation: Abnormal pupa” value (Spodoptera litura [1]; 5 μg/Insect) was 41. The “Pupal Formation: Normal pupa” value (Spodoptera litura [1]; 5 μg/Insect) was 59, the “Pupal Formation: Pupal Mortality” value (Spodoptera litura [1]; 5 μg/Insect) was 5 and the “Adult emergence: Abnormal adults” value (Spodoptera litura [1]; 10 μg/Insect) was 22. For the same compound, the “Adult emergence: Intermediates” value (Spodoptera litura [1]; 10 μg/Insect) was 34, the “Adult emergence: Non-emergence” value (Spodoptera litura [1]; 10 μg/Insect) was 1 and the “Adult emergence: Normal adults” value (Spodoptera litura [1]; 10 μg/Insect) was 36. For the same compound, the “Larval mortality (%)” value (Spodoptera litura [1]; 10 μg/Insect) was 0%, the “Pupal Formation: Abnormal pupa” value (Spodoptera litura [1]; 10 μg/Insect) was 48 and the “Pupal Formation: Normal pupa” value (Spodoptera litura [1]; 10 μg/Insect) was 52. For the same compound, the “Pupal Formation: Pupal Mortality” value (Spodoptera litura [1]; 10 μg/Insect) was 8, the “Adult emergence: Abnormal adults” value (Spodoptera litura [1]; 20 μg/Insect) was 27 and the “Adult emergence: Intermediates” value (Spodoptera litura [1]; 20 μg/Insect) was 32. The “Adult emergence: Non-emergence” value (Spodoptera litura [1]; 20 μg/Insect) was 2, the “Adult emergence: Normal adults” value (Spodoptera litura [1]; 20 μg/Insect) was 24 and the “Larval mortality (%)” value (Spodoptera litura [1]; 20 μg/Insect) was 0%. The “Pupal Formation: Abnormal pupa” value (Spodoptera litura [1]; 20 μg/Insect) was 53, the “Pupal Formation: Normal pupa” value (Spodoptera litura [1]; 20 μg/Insect) was 47 and the “Pupal Formation: Pupal Mortality” value (Spodoptera litura [1]; 20 μg/Insect) was 17. The “Adult emergence: Abnormal adults” value (Spodoptera litura [1]; 35 μg/Insect) was 23, the “Adult emergence: Intermediates” value (Spodoptera litura [1]; 35 μg/Insect) was 23 and the “Adult emergence: Non-emergence” value (Spodoptera litura [1]; 35 μg/Insect) was 25. The “Adult emergence: Normal adults” value (Spodoptera litura [1]; 35 μg/Insect) was 7, the “Larval mortality (%)” value (Spodoptera litura [1]; 35 μg/Insect) was 21% and the “Pupal Formation: Abnormal pupa” value (Spodoptera litura [1]; 35 μg/Insect) was 54. The “Pupal Formation: Normal pupa” value (Spodoptera litura [1]; 35 μg/Insect) was 25, the “Pupal Formation: Pupal Mortality” value (Spodoptera litura [1]; 35 μg/Insect) was 26 and the “Adult emergence: Abnormal adults” value (Spodoptera litura [1]; 50 μg/Insect) was 6. The “Adult emergence: Intermediates” value (Spodoptera litura [1]; 50 μg/Insect) was 8, the “Adult emergence: Non-emergence” value (Spodoptera litura [1]; 50 μg/Insect) was 9 and the “Adult emergence: Normal adults” value (Spodoptera litura [1]; 50 μg/Insect) was 5. The “Larval mortality (%)” value (Spodoptera litura [1]; 50 μg/Insect) was 57%, the “Pupal Formation: Abnormal pupa” value (Spodoptera litura [1]; 50 μg/Insect) was 38 and the “Pupal Formation: Normal pupa” value (Spodoptera litura [1]; 50 μg/Insect) was 5. For the same compound, the “Pupal Formation: Pupal Mortality” value (Spodoptera litura [1]; 50 μg/Insect) was 24, the “Adult emergence: Abnormal adults” value (Spodoptera litura [1]; 75 μg/Insect) was 1 and the “Adult emergence: Intermediates” value (Spodoptera litura [1]; 75 μg/Insect) was 2. For the same compound, the “Adult emergence: Non-emergence” value (Spodoptera litura [1]; 75 μg/Insect) was 25, the “Adult emergence: Normal adults” value (Spodoptera litura [1]; 75 μg/Insect) was 0 and the “Larval mortality (%)” value (Spodoptera litura [1]; 75 μg/Insect) was 72%. The “Pupal Formation: Abnormal pupa” value (Spodoptera litura [1]; 75 μg/Insect) was 28, the “Pupal Formation: Normal pupa” value (Spodoptera litura [1]; 75 μg/Insect) was 0 and the “Pupal Formation: Pupal Mortality” value (Spodoptera litura [1]; 75 μg/Insect) was 25. The “Adult emergence: Abnormal adults” value (Spodoptera litura [1]; 100 μg/Insect) was 0, the “Adult emergence: Intermediates” value (Spodoptera litura [1]; 100 μg/Insect) was 0 and the “Adult emergence: Non-emergence” value (Spodoptera litura [1]; 100 μg/Insect) was 14. The “Adult emergence: Normal adults” value (Spodoptera litura [1]; 100 μg/Insect) was 0, the “Larval mortality (%)” value (Spodoptera litura [1]; 100 μg/Insect) was 86% and the “Pupal Formation: Abnormal pupa” value (Spodoptera litura [1]; 100 μg/Insect) was 14. The “Pupal Formation: Normal pupa” value (Spodoptera litura [1]; 100 μg/Insect) was 0, the “Pupal Formation: Pupal Mortality” value (Spodoptera litura [1]; 100 μg/Insect) was 14 and the “Adult emergence: Abnormal adults” value (Helicoverpa armigera; 20 μg/Insect) was 41. The “Adult emergence: Intermediates” value (Helicoverpa armigera; 20 μg/Insect) was 17, the “Adult emergence: Non emergence” value (Helicoverpa armigera; 20 μg/Insect) was 3 and the “Adult emergence: Normal adults” value (Helicoverpa armigera; 20 μg/Insect) was 27. The “Larval mortality (%)” value (Helicoverpa armigera; 20 μg/Insect) was 7%, the “Pupal Formation: Abnormal pupa” value (Helicoverpa armigera; 20 μg/Insect) was 36 and the “Pupal Formation: Normal pupa” value (Helicoverpa armigera; 20 μg/Insect) was 52. The “Pupal Formation: Pupal Mortality” value (Helicoverpa armigera; 20 μg/Insect) was 5, the “Adult emergence: Abnormal adults” value (Helicoverpa armigera; 35 μg/Insect) was 11 and the “Adult emergence: Intermediates” value (Helicoverpa armigera; 35 μg/Insect) was 18. The “Adult emergence: Non emergence” value (Helicoverpa armigera; 35 μg/Insect) was 9, the “Adult emergence: Normal adults” value (Helicoverpa armigera; 35 μg/Insect) was 17 and the “Larval mortality (%)” value (Helicoverpa armigera; 35 μg/Insect) was 12%. For the same compound, the “Pupal Formation: Abnormal pupa” value (Helicoverpa armigera; 35 μg/Insect) was 28, the “Pupal Formation: Normal pupa” value (Helicoverpa armigera; 35 μg/Insect) was 27 and the “Pupal Formation: Pupal Mortality” value (Helicoverpa armigera; 35 μg/Insect) was 33. For the same compound, the “Adult emergence: Abnormal adults” value (Helicoverpa armigera; 50 μg/Insect) was 9, the “Adult emergence: Intermediates” value (Helicoverpa armigera; 50 μg/Insect) was 6 and the “Adult emergence: Non emergence” value (Helicoverpa armigera; 50 μg/Insect) was 21. The “Adult emergence: Normal adults” value (Helicoverpa armigera; 50 μg/Insect) was 8, the “Larval mortality (%)” value (Helicoverpa armigera; 50 μg/Insect) was 28% and the “Pupal Formation: Abnormal pupa” value (Helicoverpa armigera; 50 μg/Insect) was 32. The “Pupal Formation: Normal pupa” value (Helicoverpa armigera; 50 μg/Insect) was 12, the “Pupal Formation: Pupal Mortality” value (Helicoverpa armigera; 50 μg/Insect) was 28 and the “Adult emergence: Abnormal adults” value (Helicoverpa armigera; 75 μg/Insect) was 1. The “Adult emergence: Intermediates” value (Helicoverpa armigera; 75 μg/Insect) was 2, the “Adult emergence: Non emergence” value (Helicoverpa armigera; 75 μg/Insect) was 24 and the “Adult emergence: Normal adults” value (Helicoverpa armigera; 75 μg/Insect) was 0. The “Larval mortality (%)” value (Helicoverpa armigera; 75 μg/Insect) was 49%, the “Pupal Formation: Abnormal pupa” value (Helicoverpa armigera; 75 μg/Insect) was 27 and the “Pupal Formation: Normal pupa” value (Helicoverpa armigera; 75 μg/Insect) was 0. The “Pupal Formation: Pupal Mortality” value (Helicoverpa armigera; 75 μg/Insect) was 24, the “Adult emergence: Abnormal adults” value (Helicoverpa armigera; 100 μg/Insect) was 0 and the “Adult emergence: Intermediates” value (Helicoverpa armigera; 100 μg/Insect) was 2. The “Adult emergence: Non emergence” value (Helicoverpa armigera; 100 μg/Insect) was 20, the “Adult emergence: Normal adults” value (Helicoverpa armigera; 100 μg/Insect) was 0 and the “Larval mortality (%)” value (Helicoverpa armigera; 100 μg/Insect) was 61%. The “Pupal Formation: Abnormal pupa” value (Helicoverpa armigera; 100 μg/Insect) was 22, the “Pupal Formation: Normal pupa” value (Helicoverpa armigera; 100 μg/Insect) was 0 and the “Pupal Formation: Pupal Mortality” value (Helicoverpa armigera; 100 μg/Insect) was 17. The “LC50 ± S.E.” value (Aedes aegypti) was 5.33 ± 0.97 µg/mL (≈ 17.1 µM), the “A.I. (Anti-feedent Index)” value (Spodoptera litura [2]; 10 μg/sq. cm.) was 5.50 and the “Percent leaf consumption 12 hr” value (Spodoptera litura [2]; 10 μg/sq. cm.) was 48.55%. For the same compound, the “Percent leaf consumption 24 hr” value (Spodoptera litura [2]; 10 μg/sq. cm.) was 85.1%, the “A.I. (Anti-feedent Index)” value (Spodoptera litura [2]; 15 μg/sq. cm.) was 22.27 and the “Percent leaf consumption 12 hr” value (Spodoptera litura [2]; 15 μg/sq. cm.) was 35.2%. The “Percent leaf consumption 24 hr” value (Spodoptera litura [2]; 15 μg/sq. cm.) was 60.4%, the “A.I. (Anti-feedent Index)” value (Spodoptera litura [2]; 20 μg/sq. cm.) was 35.14 and the “Percent leaf consumption 12 hr” value (Spodoptera litura [2]; 20 μg/sq. cm.) was 22.5%. The “Percent leaf consumption 24 hr” value (Spodoptera litura [2]; 20 μg/sq. cm.) was 45.6%, the “A.I. (Anti-feedent Index)” value (Spodoptera litura [2]; 25 μg/sq. cm.) was 64.22 and the “Percent leaf consumption 12 hr” value (Spodoptera litura [2]; 25 μg/sq. cm.) was 3.5%. The “Percent leaf consumption 24 hr” value (Spodoptera litura [2]; 25 μg/sq. cm.) was 20.7%, the “A.I. (Anti-feedent Index)” value (Spodoptera litura [2]; 30 μg/sq. cm.) was 85.37 and the “Percent leaf consumption 12 hr” value (Spodoptera litura [2]; 30 μg/sq. cm.) was 0%. The “Percent leaf consumption 24 hr” value (Spodoptera litura [2]; 30 μg/sq. cm.) was 7.5% and the “Concentration required for 50% leaf protection EC50 ± S.E.” value (Spodoptera litura [2]; late third instar) was 17.11 ± 1.36 μg/cm^2.
